Read-outs that look alike come from different tables or passages of the source.
What was measured:
[1] = Chemical stability in 0.01 N HCl, SIF (pH 6.0) and pH 7.4 phosphate buffer; type: physicochemical
Description: The nonenzymatic hydrolysis of the prodrugs was determined as described above, except that each well contained pH 7.4 phosphate buffers (10 mmol/L) instead of cell homogenate.
The experiments concerning drug and their prodrug stability were performed at 37 °C in 0.01 N HCl, SIF (pH 6.0), and pH 7.4 phosphate buffer. […] Prodrug metabolites such as floxuridine, 5-fluorouracil (5-FU), gemcitabine, 2′-deoxy-2′,2′-difluorouridine, uracil, and cytosine were monitored along with prodrug disappearance in this experiment.

[2] = tested on: mouse jejunum; assay: In situ single-pass intestinal perfusion in mice (Peff); type: in vivo; conditions: for Peff, mouse perfusion: 100 µM; for fold higher membrane permeability than parent drug: in situ
Description: The perfusion buffer (pH6.0) consisted of 145 mM NaCl, 0.5 mM MgCl2, 1 NaH2PO4, 1 mM CaCl2, 3 mM KCl, 5 mM glucose, and 5 mM MES. The pH of the buffer was adjusted to pH6.0. This perfusion buffer also contained phenol-red (14 µM) as a non-absorbable marker for water flux measurements.
All animal experiments were conducted using protocols approved by the University of Michigan Committee of Use and Care of Animals (UCUCA). Female BALB/c mice (Charles River, IN, USA) weighing 20–25 g were used for all perfusion studies. Prior to each experiment, mice were fasted overnight with free access to water.
The procedure for the in situ single-pass intestinal perfusion is previously reported. Briefly, mice were anesthetized with an i.m. injection of ketamine-xylazine mixture (ketamine: 80–120 mg/kg, xylazine: 5–10 mg/kg) and placed on a heated pad maintained at 37 °C. The abdomen was opened by a midline incision and a jejunal segment (approximately 10 cm) was carefully exposed to cannulate both ends with flexible PVC tubing (2.06 mm i.d., Fisher Scientific Inc., Pittsburgh, PA, USA). All solutions were incubated in a 37 °C water-bath. The isolated segment was rinsed with blank perfusion buffer to clean out any residual debris.
At the start of the study, the test compound (100 µM) in perfusion buffer (pH 6.0) including phenol red was perfused through the intestinal segment (Watson-Marlow Pump 323S, Watson-Marlow Bredel Inc., Wilimington, MA, USA), at the flow rate of 0.1 mL/min. The perfusion buffer was perfused for 30 min to assure steady-state and samples were taken in every 10 min for 90 min. At the end of perfusion, blood samples were collected by cardiac puncture. Blood samples with heparin were centrifuged at 1,000 × g for 10 min at 4 °C to collect plasma samples for LC-MS analysis. Following the termination of the experiment, the length of each perfused intestinal segment was measured.
The net water flux in the mouse perfusion studies was determined using phenol red (14 µM), a non-absorbed and non-metabolized marker. The measured Cout/Cin ratio of test compound was corrected for water flux according to the following equation: [drawing 1] where Cin phenol red and Cout phenol red are equal to the concentration of phenol red in the inlet and the outlet samples, respectively. The effective permeability (Peff; cm/s) through the mouse intestinal wall in the single-pass intestinal perfusion studies was determined according to the following equation: [drawing 2] where Q is the perfusion buffer flow rate (0.1 mL/min), C′out/C′in is the ratio of the outlet/inlet concentration of test compound that is adjusted for water transport, R is the radius of the intestinal segment (set to 0.1 cm), and L is the length of the perfused intestinal segment.
The stability samples of prodrugs and their metabolites, and perfusion samples were determined on an Agilent HPLC system (Agilent Technologies, Santa Clara, CA, USA). The HPLC system consisted of Agilent pumps (1100 series), an Agilent autosampler (1200 series), and an Agilent UV-Vis detector (1100 series) controlled by Chemstation® 32 software (version B.01.03). Samples were resolved in an Agilent Eclipse Plus C18 reverse-phase column (3.5 µm, 4.6 × 75 mm) equipped with a guard column. The mobile phase consisted of 0.1% TFA/water (Solvent A) and 0.1% TFA/acetonitrile (Solvent B) with the solvent B gradient changing from 0%–56% at a rate of […] during a 15 min run for gemcitabine and gemcitabine prodrugs. Standard curves generated for each prodrug and their parent drug were utilized for quantitation of integrated area under peaks. The detection wavelength was 254 nm and spectra were acquired in the 220–380 nm wavelength range. The detection wavelength for phenol red was 430 nm.

[3] = tested on: AsPC-1 cells; assay: Cell proliferation assay (XTT) in AsPC-1 cells; type: cell-based; conditions: 24 h recovery
Description: (§1) Cell proliferation studies were conducted with Panc-1 and AsPC-1 cells. The cells were seeded into 96-well plates at 80,000 cells per well and allowed to attach/grow for 48 h before drug solutions were added. The culture medium (DMEM +10% fetal bovine serum or RPMI-1640 +10% fetal bovine serum) was removed and the cells were gently washed once with sterile pH 6.0 uptake buffer. Floxuridine, 5′-L-phenylalanyl-L-tyrosyl-floxuridine, gemcitabine and 5′-L-phenylalanyl-L-tyrosyl-gemcitabine were 2-fold serially diluted in pH 6.0 uptake buffer from 5 to 0.078 mmol/L. Buffer alone was used as a 100% viability control. The wash buffer was removed and 30 µL drug solution per well was added and incubated at 37 °C for 2 h in the cell incubator. After this time, the drug solutions were removed and the cells were again gently washed twice with sterile uptake buffer. The culture medium was then added to each well after washing. The cells were allowed to recover for 24 h before evaluating cell viability via 2,3-bis[2-methoxy-4-nitro-5-sulfophenyl]-2H-tetrazolium-5-carboxanilide inner salt (XTT) assays. A mixture (30 µL) containing XTT (1 mg/mL) in sterile RPMI-1640 without phenol red and phenazine methosulfate (N-methyldibenzopyrazine methyl sulfate in sterile PBS, 0.383 mg/mL) reagents were added to the cells and incubated at 37 °C for 1 h, after which the absorbance at 450 nm was read. The concentrations required to inhibit cell growth by 50% (GI50) were calculated using GraphPad Prism version 3.0 by nonlinear data fitting.

[4] = tested on: Panc-1 cells; assay: Cell proliferation assay (XTT) in Panc-1 cells; type: cell-based
Description: as §1

[5] = 0.01 N HCl, 37 °C, read-out: 0.01 N HCl t1/2
[6] = SIF pH 6.0, 37 °C, read-out: SIF pH 6.0 t1/2
[7] = pH 7.4 phosphate buffer, 37 °C, read-out: Buffer pH 7.4 t1/2
[8] = Homo sapiens, ASPC1, 2 h exposure
[9] = Homo sapiens, PANC-1, 2 h exposure, 24 h recovery, XTT

| Compound | 0.01 N HCl t1/2 ([1]; 0.01 N HCl, 37 °C) [min] | SIF pH 6.0 t1/2 ([1]; SIF pH 6.0, 37 °C) [min] | Buffer pH 7.4 t1/2 ([1]; pH 7.4 phosphate buffer, 37 °C) [min] | Peff, mouse perfusion ([2]; perfusion buffer pH 6.0) | Peff, mouse perfusion ([2]; perfusion buffer pH 6.0, listed as gemcitabine) [cm/s] | GI50 ([3]; 2 h exposure) [mM] | GI50 ([4]; tested 5 to 0.078 mmol/L) [mM] | half-life [1, 5] [min] | half-life [1, 6] [min] | half-life [1, 7] [min] | fold higher membrane permeability than parent drug [2] [fold] | GI50 [3, 8] [mM] | GI50 [4, 9] [mM] | Peff, mouse perfusion ([2]; perfusion buffer pH 6.0, listed as floxuridine) [cm/s] | GI50 ([4]; Homo sapiens, PANC-1, tested 5 to 0.078 mmol/L) [mM] |
| --- | --- | --- | --- | --- | --- | --- | --- | --- | --- | --- | --- | --- | --- | --- | --- |
| 2′,2′-difluoro-2′-deoxyuridine [Gemcitabine] | >120 | >120 | >120 | 0.2 ± 0.2 ×10^−5 cm/s | 2e-06 | 10.2 ± 1.6 | > 5 |  |  |  |  |  |  |  |  |
| NC(Cc1ccccc1)C(=O)NC(Cc1ccc(O)cc1)C(=O)OCC1OC(n2cc(F)c(=O)[nH]c2=O)CC1O [5′-L-Phenylalanyl-L-tyrosyl-floxuridine] |  |  |  | 1.9 ± 0.1 ×10^−5 cm/s |  |  |  | > 120 | > 120 | > 120 | 19.0 | 4.2 ± 0.1 | 3 ± 0.3 |  |  |
| Nc1ccn(C2OC(COC(=O)C(Cc3ccc(O)cc3)NC(=O)C(N)Cc3ccccc3)C(O)C2(F)F)c(=O)n1 [5′-L-Phenylalanyl-L-tyrosyl-gemcitabine] |  |  |  | 2.2 ± 0.4 ×10^−5 cm/s |  |  |  | > 120 | > 120 | 33.6 ± 1.4 | 11.0 | 5 ± 0.3 | 3.2 ± 0.7 |  |  |
| O=c1[nH]c(=O)n([C@H]2C[C@H](O)[C@@H](CO)O2)cc1F [Floxuridine, 5-fluoro-2′-deoxyuridine] |  |  |  | 0.1 ± 0.8 ×10^−5 cm/s |  |  |  | > 120 | > 120 | > 120 |  |  |  | 1e-06 | > 5 |

Source: article PMC3942691, “The Dipeptide Monoester Prodrugs of Floxuridine and Gemcitabine—Feasibility of Orally Administrable Nucleoside Analogs” (Pharmaceuticals, 2014)
